In patent US9107879B1, “Methods of increasing the cytotoxicity of chemotherapeutic agents with multisubstrate inhibitors of histone, protein-lys, polyamine acetylation, and polyamine metabolism” (Vanderbilt University, priority 2010, dated 2015):

Tested on: MCF7 breast cancer cells
Settings: 1a increasing concentrations; camptothecin 5 nM 18 hour
Protocol: (A) [^3H]-thymidine incorporation into DNA of H358 cells (left panel) or MCF-7 cells (right panel) during a 6 hour pulse ending at the indicated time points after initiation of treatment. Treatments were 50 μM 1a alone, 5 nM camptothecin alone (CPT, 18 hours), 50 μM 1a+5 nm CPT (18 hours). Control cells were left untreated. (B) 2-day 96-well viability assays of H358 cells (left panel) or MCF-7 cells (right panel) grown in presence of increasing concentrations of 1a (continuous), with or without an 18-hour treatment with 5 nM camptothecin (CPT). Cell viability, represented as a percent of untreated cell viability (i.e., no 1a, no CPT), was determined 2 days post-start of treatment by the MTS bioconversion assay (MTS=(3-(4,5′-dimethylthiazol-2-yl)-5-(3-carboxymethoxylphenyl-2-(4-sulfophenyl)-2H-tetrazolium salt). Each data point represents the average of triplicate wells. Assays were carried out under conditions such that untreated cells remained in exponential growth. (C) [^3H]-thymidine incorporation into DNA of H358 cells carried out as in part “A”. Treatment consisted of 1a alone (50 μM), or cisplatin (2 μM, 1 hour, 15 minutes) alone or together with 1a (Panel 1); or UVC (40 J/m^2), alone or together with 1a (Panel 2); or 5-fluorouracil (5FU, 2 μM, 18 hours) alone or together with 1a (Panel 3), or Taxotere™ (5 nM, 18 hours), alone or together with 1a (Panel 4). Control cells were left untreated. Symbols are as follows: (-◯-) untreated control; (-●-) 50 μM 1a, (-∇-) drug or UVC alone; (-▾-) combination 1a+drug or UVC.
Viability was measured 3 days after the start of treatment and is expressed as a percentage of control (untreated) cell viability.
Each point is average of triplicates.
Date of exp: 7-17-2010; located p.21 in Hat notebook: KB-2 (2010-2011).
Cells were plated in 96-well plates (3000 cells per well) and incubated 18 hours with or without 5 nM camptothecin (Sigma, St Louis, Mo.). Triplicate wells were then treated with varying doses of 1a (from 0-50 μM). Control cells received neither 1a nor camptothecin. 2-day viability was determined by the MTS assay as previously (Saadatmandi et al., 2002, Cancer Gene Therapy, 9: 830-9) and expressed as a percentage of control cell viability.
The present inventors carried out 96-well viability assays as we have previously described (Saadatmandi et al, Cancer Gene Therapy (2002) 9:830-9), in which MCF7 breast cancer cells were plated at 3000 cells per well. After overnight attachment, triplicate wells were treated with increasing doses of inhibitor 1a. Control wells were left untreated. After 3 days, cell viability was measured by the MTS assay, which measures the bioconversion of an uncolored substrate to a colored formazan derivative, and is proportional to cell number. […]

CC[C@@]1(O)C(=O)OCc2c1cc1n(c2=O)Cc2cc3ccccc3nc2-1 [camptothecin]
2-day cumulative cell viability relative to untreated, single agent: no effect
